Patent publication US20210220450A1, “TREATMENT OF AN IOP CONDITION” (The Research Foundation for The State University of New York, priority 2013, published 2021)

Columns and labels:
MMP-2, MMP-9, MMP-13 [1] = test: MMP expression in PA treated HTM cells (Examples 17, 18); type: cell-based
Mmp-2, Mmp-9, Mmp-13 [2] = test: Mmp expression in Tg-MYOCY437H angle ring tissue (Example 19); type: in vivo, mouse; conditions: 5 days, vs BSA treated eyes
Procedure: Eyes were flash frozen in liquid nitrogen after outflow facility determination and subsequently dissected on ice to obtain the angle ring tissues containing the TM, as previously described (Kumar, Shah et al. 2013). Dissected TM tissues were immersed in RNAlater solution (Invitrogen, Waltham, Mass., USA) and then snap-frozen and stored at −80° C. until RNA extraction. Tissue collected was pooled (four eyes) and homogenized in TRIzol reagent for RNA isolation, per manufacturer's instructions (Life Technologies, Carlsbad, Calif., USA). RNA concentration was determined with a Nanodrop ND-1000 Spectrophotometer (Thermo Scientific, Wilmington, Del., USA). cDNA was synthesized by using High-Capacity cDNA Reverse Transcription Kit (Applied Biosystems, Waltham, Mass., USA) according to manufacturer's protocol. Quantitative real-time PCR (qRT-PCR) was performed by using Green-2-Go qPCR Mastermix-ROX (Bio Basic, Amherst, N.Y., USA) on a QuantStudio 6 Flex thermal cycler (Applied Biosystems, Carlsbad, Calif., USA). mRNA expression of Plat, Plau, Pai-1, Mmp-2, Mmp-9, and Mmp-13 in angle ring tissues was determined. Primers were designed by using Primer-BLAST (https://www.ncbi.nlm.nih.gov/tools/primer-blast/index.cgi?LINK_LOC=BlastHome; in the public domain); primer sequences are listed in Table 2. Primer specificity was confirmed by agarose gel electrophoresis and multiple-sized amplification products were absent on inspection of melting curves. Target mRNA expression values were normalized to the expression levels of Rps11 (ribosomal protein S11). The relative fold change was calculated by using the ΔΔCt method (Hu, Wang et al. 2015). Outliers identified via the Thompson Tau test were removed from analysis.

C57/1B6 mice = test: Outflow facility in TA-treated mice injected intracamerally with AdPLAT (Example 1); type: in vivo
Procedure: Methods: Adenoviral vectors carrying cDNA of the sheep PLAT gene and a fluorescent reporter gene (mCherry) (AdPLAT) or with no transgene (AdNull) were created. Transgene expression was driven by the CMV promoter. 3 groups of C57/1B6 mice received either: (1) 20 μl of triamcinolone acetonide (TA) suspension (40 mg/ml) subconjunctivally bilaterally followed immediately by unilateral intracameral injection with 2 μl AdPLAT (3-4×10^12 VG/ml); (2) 20 μl TA subconjunctivally bilaterally followed one week later by unilateral intracameral injection with 2 μl AdPLAT; or (3) 20 μl TA subconjunctivally bilaterally followed immediately by bilateral injection with 2 μl adenovirus AdNull. IOP was measured preterminally. Outflow facility was determined using simultaneous pressure and flow measurements (see FIGS. 2A-2C). After outflow facility measurement, all AdPLAT injected eyes were dissected and viewed under a fluorescent microscope to inspect for mCherry expression in the trabecular meshwork (TM).

C57BL/6J mice = test: Outflow facility in TA and adenovirus treated C57BL/6J mouse eyes (Example 12); type: in vivo; conditions: TA exposed eyes vs naïve C57BL/6J
Procedure: Steroid, adenoviral and protein injections. Intracameral adenovirus and intravitreal protein injections were performed using a 10 μl Hamilton syringe with 36-gauge stainless steel needles (WPI Inc, Sarasota, Fla., USA) while subconjunctival injections were performed using a 100 μl Hamilton Syringe with 26-gauge needles (Precision Glide, Becton Dickinson & CO, Franklin Lakes, N.J., USA). All injections were performed under isoflurane inhalation anesthesia and topical anesthesia with 0.5% proparacaine. C57BL/6J mice undergoing adenovirus treatment received bilateral injections with 20 μl of triamcinolone acetonide (TA) suspension (40 mg/ml, Kenalog-40; Bristol-Myers Squibb, NY, USA) subconjunctivally immediately prior to the intracameral adenovirus injection. Animals were then divided into three groups (FIG. 10a): […]
Outflow facility determination: Mouse eyes were enucleated immediately after euthanasia. Outflow facility was determined using a constant pressure method, as previously described. […] Flow was constantly measured via a microfluidic flow sensor (0.07-1.5 uL/min, MFS1; Elveflow, Paris, France). […] Any eyes that developed visible leaks during outflow facility determination, or that had pressure-flow correlations with R^2<0.9, were excluded from analysis but were used for RNA quantification.

[3] = tested on: sheep of the Corriedale breed; test: Steroid-induced IOP elevation in sheep, intravitreal tPA (Examples 3, 4); type: in vivo
Procedure: Protocol 1. 8 sheep of the Corriedale breed were treated with prednisolone acetate three times a day in both eyes, leading to elevated IOP. After one week, the animals received intravitreal injections of human recombinant tPA (100, 200, 500 and 1000 μg, two animals each) dissolved in balanced salt solution (BSS) in one eye. IOP was monitored for 19 more days while the animals continued to receive treatment with prednisolone. Periodic slit lamp examination was also performed.
Protocol 2. In a second set of experiments, arginine was added to the BSS vehicle administered to the left eye to control for the relatively high concentration of the amino acid in the commercially available tPA lyophilisate. In these experiments all right eyes received 0.1 mg tPA, which concomitantly delivered 4.23 mg of arginine into the vitreous, and the left eye received this same amount of arginine, absent the tPA. On Day 1, prednisolone treatments were also begun simultaneously on both eyes.
Methods. In this experiment, the inventor sought to detect the effects of tPA treatment on prevention of steroid-induced IOP elevation. In 4 sheep tPA was injected in one eye (100 μg) and they were started on prednisolone acetate three times a day in both eyes. Animals were monitored for 11 days on continuous treatment.

[4] = tested on: sheep of the Coriedale breed; test: Steroid-induced IOP elevation in sheep, tPA injected into the anterior chamber (Example 9); type: in vivo; conditions: amount of arginine associated with 0.01 ug tPA, injected alone
Procedure: Methods. Lyophilized tPA, obtained as Acetilyse® from Boehringer Ingelheim S. A. (Buenos Aires) containing arginine, was used. Five sheep of the Coriedale breed were selected. Initially all eyes received instillation of 1% prednisolone 3 times/day for 10 days to elevate their IOP from 10 mm Hg to about 23 mm Hg. Then, 0.0001 μg was injected into one of the eyes and its effect was followed for up to 55:00 hrs while the instillation of prednisolone continued in both eyes. The same protocol was implemented for the 0.001 and 0.01 μg amounts (after extended washout) in the contra lateral eyes. Arginine, which is associated with 0.01 ug tPA, was injected alone and had no effect.

PLAT = PLAT mRNA in HTM cells after prednisolone (Example 8); type: cell-based; conditions: HTM cells from two donors; as early as 1 hour after prednisolone
Description: FIG. 8. Relative fold difference of PLAT mRNA from 18S mRNA amounts in HTM cells treated with prednisolone acetate (PA treated) or vehicle (Control) for […].

HTM cells = test: Simulated outflow facility of HTM cells in artificial conventional outflow system (ACOS) (Examples 17, 18); type: cell-based; conditions: PA treatment
Procedure: HTM cells were treated with 300 nM prednisolone acetate (PA) for 72 h to reduce outflow facility. They were then treated with either tissue plasminogen activator (tPA), non-enzymatically active tPA (NE-tPA) or bovine serum albumin (BSA) and perfused in artificial conventional outflow system (ACOS). Simulated outflow facilities (mean±standard deviation) (μl/min/mmHg/mm^2) was 2.4±0.6×10-1 for PA, 3±1.2×10-1 for PA+BSA, 7±1.2×10-1 for PA+tPA and 5.4±0.9×10-1 for PA+NE-tPA (p<0.0001, ANOVA).
HTM cells were treated with PA+NE-tPA and inhibitors of either LRP1 (RAP) or NMDA receptor (MK-801) and were perfused in ACOS. Simulated outflow facility (meant standard deviation μl/min/mmHg/mm^2) was 5.5±0.7×10-1 for PA+NE-tPA, 2.9±1.3×10-1 for PA+NE-tPA+MK-801, 2.7±1.2×10-1 for PA+NE-tPA+RAP and 3.3±1.3×10-1 for PA+NE-tPA+MK-801+RAP.

[5] = added to PA+NE-tPA, vs PA+NE-tPA treated cells

Structure (SMILES): C[C@]12N[C@H](Cc3ccccc31)c1ccccc12 [MK-801, reference compound]
- MMP-2 expression (MMP-2, MMP-9, MMP-13 [1]; [5]): significantly lower
- MMP-9 expression (MMP-2, MMP-9, MMP-13 [1]; [5]): significantly lower

Structure (SMILES): O=C([O-])CCCc1ccccc1.[Na+] [PBA, sodium phenylbutarate, reference compound]
- Mmp-2 expression (Mmp-2, Mmp-9, Mmp-13 [2]): no significant difference
- Mmp-9 expression (Mmp-2, Mmp-9, Mmp-13 [2]): higher
- Mmp-13 expression (Mmp-2, Mmp-9, Mmp-13 [2]): did not show any difference

Structure (SMILES): CC1(C)O[C@@H]2C[C@H]3[C@@H]4CCC5=CC(=O)C=C[C@]5(C)[C@@]4(F)[C@@H](O)C[C@]3(C)[C@]2(C(=O)CO)O1 [TA, triamcinolone acetonide]
- outflow facility, mean±SD (C57/1B6 mice; TA only eyes, two weeks of TA, n=24): 0.0067±0.0028 μl/min/mmHg
- outflow facility, mean±SD (C57/1B6 mice; contralateral eyes injected with TA alone, concurrent experiment, n=22): 0.0060±0.0025 μl/min/mmHg
- reduction in outflow facility from baseline (C57BL/6J mice): ~46%

Structure (SMILES): N=C(N)NCCC[C@H](N)C(=O)O [arginine, reference compound]
- effect of arginine alone on steroid-increased IOP ([3]; 4.23 mg arginine intravitreal, prednisolone): does not alter
- effect of arginine alone on outflow facility ([3]; eye receiving arginine plus prednisolone (OS)): failed to reduce
- effect of arginine alone on IOP [4]: had no effect

Structure (SMILES): CC(=O)OCC(=O)[C@@]1(O)CC[C@H]2[C@@H]3CCC4=CC(=O)C=C[C@]4(C)[C@H]3[C@@H](O)C[C@@]21C [prednisolone, prednisolone acetate, reference compound]
- PLAT expression (PLAT): downregulation
- mean (±SD) IOP ([3]; prednisolone for 10 days, baseline 10.2 (±1.1) mmHg): 24.1(±1.6) mmHg
- reduction in outflow facility compared to baseline (HTM cells): ~73%
- MMP-13 mRNA (MMP-2, MMP-9, MMP-13 [1]; PA treated HTM cells): below detectable limits
